Assay results taken from patent US8168651B2, “Protein kinase modulators” (Cylene Pharmaceuticals, Inc., priority 2008, dated 2012).

Key:
Test in all cases: Standardized radiometric kinase assays, percentage of activity at 0.5 μM;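 further: Read-out is ³³P-labelled substrate protein phosphorylated by each kinase, captured on filters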
[1] = biological target: each individual kinase of the panel (Homo sapiens, UniProt P43250)
[2] = biological target: each individual kinase of the panel (Homo sapiens, UniProt P29317)
Chain of each individual kinase of the panel (Homo sapiens, UniProt P29317) (P29317 24-976 limits assumed): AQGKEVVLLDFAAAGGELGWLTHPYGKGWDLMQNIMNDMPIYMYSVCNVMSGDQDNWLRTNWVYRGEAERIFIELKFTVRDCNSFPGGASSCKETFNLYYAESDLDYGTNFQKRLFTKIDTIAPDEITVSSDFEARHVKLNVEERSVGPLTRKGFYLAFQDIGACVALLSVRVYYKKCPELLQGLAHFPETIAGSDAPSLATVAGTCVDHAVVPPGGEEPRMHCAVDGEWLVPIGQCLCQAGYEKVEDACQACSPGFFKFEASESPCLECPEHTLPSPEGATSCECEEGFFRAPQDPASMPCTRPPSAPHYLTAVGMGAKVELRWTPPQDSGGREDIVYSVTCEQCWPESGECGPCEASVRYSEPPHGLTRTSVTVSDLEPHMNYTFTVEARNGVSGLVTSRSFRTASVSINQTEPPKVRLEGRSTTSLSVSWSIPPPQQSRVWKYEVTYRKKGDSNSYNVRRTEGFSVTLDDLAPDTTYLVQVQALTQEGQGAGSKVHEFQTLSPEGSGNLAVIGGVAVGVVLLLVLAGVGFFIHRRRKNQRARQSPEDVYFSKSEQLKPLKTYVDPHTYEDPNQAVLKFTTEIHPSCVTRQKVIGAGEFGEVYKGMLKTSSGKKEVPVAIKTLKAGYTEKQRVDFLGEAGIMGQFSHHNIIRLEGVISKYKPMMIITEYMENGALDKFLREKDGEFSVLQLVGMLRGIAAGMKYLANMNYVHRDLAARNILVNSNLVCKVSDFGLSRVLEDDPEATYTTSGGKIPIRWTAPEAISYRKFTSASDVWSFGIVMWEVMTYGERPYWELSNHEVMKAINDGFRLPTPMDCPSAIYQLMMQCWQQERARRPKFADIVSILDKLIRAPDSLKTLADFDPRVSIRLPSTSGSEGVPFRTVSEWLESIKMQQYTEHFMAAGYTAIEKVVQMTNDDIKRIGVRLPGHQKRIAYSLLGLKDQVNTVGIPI

[3] = biological target: each individual kinase of the panel (Homo sapiens, UniProt P41743)
Chain of each individual kinase of the panel (Homo sapiens, UniProt P41743) (P41743 2-596 limits assumed): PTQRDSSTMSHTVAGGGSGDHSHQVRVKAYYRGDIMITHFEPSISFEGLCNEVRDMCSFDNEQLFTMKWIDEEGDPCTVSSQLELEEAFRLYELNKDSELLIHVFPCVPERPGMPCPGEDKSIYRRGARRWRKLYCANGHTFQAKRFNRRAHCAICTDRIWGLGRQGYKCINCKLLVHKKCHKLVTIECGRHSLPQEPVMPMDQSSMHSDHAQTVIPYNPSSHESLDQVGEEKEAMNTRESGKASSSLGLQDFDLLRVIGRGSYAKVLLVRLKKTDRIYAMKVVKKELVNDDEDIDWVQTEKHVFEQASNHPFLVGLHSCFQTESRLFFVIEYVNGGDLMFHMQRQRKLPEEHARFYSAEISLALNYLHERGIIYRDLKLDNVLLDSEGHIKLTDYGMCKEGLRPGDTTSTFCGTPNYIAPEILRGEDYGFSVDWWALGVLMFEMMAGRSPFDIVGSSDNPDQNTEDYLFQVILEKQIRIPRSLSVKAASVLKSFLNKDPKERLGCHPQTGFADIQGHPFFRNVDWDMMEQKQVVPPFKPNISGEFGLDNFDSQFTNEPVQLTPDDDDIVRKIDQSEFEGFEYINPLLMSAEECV

[4] = biological target: each individual kinase of the panel (Homo sapiens, UniProt P53355)
[5] = biological target: each individual kinase of the panel (Homo sapiens, UniProt O75582)
[6] = biological target: each individual kinase of the panel (Homo sapiens, UniProt Q06187)
Chain of each individual kinase of the panel (Homo sapiens, UniProt Q06187) (Q06187 2-659 limits assumed): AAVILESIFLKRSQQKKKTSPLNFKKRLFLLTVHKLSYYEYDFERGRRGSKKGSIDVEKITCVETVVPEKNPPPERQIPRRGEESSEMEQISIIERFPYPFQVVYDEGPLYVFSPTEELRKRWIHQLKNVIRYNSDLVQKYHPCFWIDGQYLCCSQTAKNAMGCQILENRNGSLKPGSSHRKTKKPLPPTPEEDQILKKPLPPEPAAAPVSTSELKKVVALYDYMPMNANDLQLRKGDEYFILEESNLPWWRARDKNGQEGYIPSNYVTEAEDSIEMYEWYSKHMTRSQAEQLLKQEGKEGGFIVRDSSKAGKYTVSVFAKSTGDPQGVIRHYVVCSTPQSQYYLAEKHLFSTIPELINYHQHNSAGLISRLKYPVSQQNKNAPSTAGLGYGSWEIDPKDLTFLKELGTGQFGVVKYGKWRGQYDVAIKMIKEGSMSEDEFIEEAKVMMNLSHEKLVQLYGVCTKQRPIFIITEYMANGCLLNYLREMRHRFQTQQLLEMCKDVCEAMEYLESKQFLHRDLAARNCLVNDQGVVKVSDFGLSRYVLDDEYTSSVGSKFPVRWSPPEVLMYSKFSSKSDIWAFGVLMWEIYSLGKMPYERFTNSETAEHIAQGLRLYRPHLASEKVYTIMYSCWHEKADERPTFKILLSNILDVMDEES

[7] = biological target: each individual kinase of the panel (Homo sapiens, UniProt P29320)
Chain of each individual kinase of the panel (Homo sapiens, UniProt P29320) (P29320 21-983 limits assumed): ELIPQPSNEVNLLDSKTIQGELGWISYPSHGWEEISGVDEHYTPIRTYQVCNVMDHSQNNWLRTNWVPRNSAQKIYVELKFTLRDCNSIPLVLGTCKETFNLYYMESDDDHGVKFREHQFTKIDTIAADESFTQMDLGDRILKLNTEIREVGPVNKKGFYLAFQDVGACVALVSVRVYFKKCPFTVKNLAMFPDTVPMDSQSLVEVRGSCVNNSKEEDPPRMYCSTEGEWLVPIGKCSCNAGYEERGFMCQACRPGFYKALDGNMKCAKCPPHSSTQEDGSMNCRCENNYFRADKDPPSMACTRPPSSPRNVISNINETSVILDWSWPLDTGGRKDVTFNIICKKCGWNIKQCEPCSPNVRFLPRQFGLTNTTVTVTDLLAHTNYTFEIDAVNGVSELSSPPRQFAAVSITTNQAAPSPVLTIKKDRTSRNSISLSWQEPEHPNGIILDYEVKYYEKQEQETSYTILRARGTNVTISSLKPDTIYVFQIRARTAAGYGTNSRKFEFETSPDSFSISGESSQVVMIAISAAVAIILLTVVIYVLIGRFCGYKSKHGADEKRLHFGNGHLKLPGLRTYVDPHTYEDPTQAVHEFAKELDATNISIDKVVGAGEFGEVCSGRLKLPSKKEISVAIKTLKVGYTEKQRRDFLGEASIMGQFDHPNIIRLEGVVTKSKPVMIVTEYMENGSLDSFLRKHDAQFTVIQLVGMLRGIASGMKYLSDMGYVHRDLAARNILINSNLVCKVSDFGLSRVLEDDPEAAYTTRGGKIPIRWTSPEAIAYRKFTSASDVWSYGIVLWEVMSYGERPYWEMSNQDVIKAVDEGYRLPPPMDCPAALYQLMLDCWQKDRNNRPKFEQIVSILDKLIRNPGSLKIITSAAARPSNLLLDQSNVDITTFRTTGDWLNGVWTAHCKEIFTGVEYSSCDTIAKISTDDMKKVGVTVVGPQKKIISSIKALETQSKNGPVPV

[8] = biological target: each individual kinase of the panel (Homo sapiens, UniProt Q8TDC3)
[9] = biological target: each individual kinase of the panel (Homo sapiens, UniProt Q96RG2)
[10] = biological target: each individual kinase of the panel (Homo sapiens, UniProt Q16539, T106M)
Chain of each individual kinase of the panel (Homo sapiens, UniProt Q16539, T106M) (Q16539 2-360 T106M limits assumed): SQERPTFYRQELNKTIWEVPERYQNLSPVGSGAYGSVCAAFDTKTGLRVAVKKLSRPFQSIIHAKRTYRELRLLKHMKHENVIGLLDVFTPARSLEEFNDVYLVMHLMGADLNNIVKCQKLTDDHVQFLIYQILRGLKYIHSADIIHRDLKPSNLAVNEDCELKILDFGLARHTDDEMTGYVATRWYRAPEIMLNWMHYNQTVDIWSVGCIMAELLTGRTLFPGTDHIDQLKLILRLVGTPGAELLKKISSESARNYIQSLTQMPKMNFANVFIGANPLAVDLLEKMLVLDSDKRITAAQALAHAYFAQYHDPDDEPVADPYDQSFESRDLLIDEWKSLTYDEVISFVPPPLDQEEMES

[11] = biological target: each individual kinase of the panel (Homo sapiens, UniProt P54764)
[12] = biological target: each individual kinase of the panel (Homo sapiens, UniProt Q8TDX7)
[13] = biological target: each individual kinase of the panel (Homo sapiens, UniProt P53667)
[14] = biological target: each individual kinase of the panel (Mus musculus, UniProt P47809)
[15] = biological target: each individual kinase of the panel (Homo sapiens, UniProt Q13188)
[16] = biological target: each individual kinase of the panel (Homo sapiens, UniProt Q16644)
[17] = biological target: each individual kinase of the panel (Homo sapiens, UniProt Q02156)
[18] = biological target: each individual kinase of the panel (Homo sapiens, UniProt P11362, V561M)
Chain of each individual kinase of the panel (Homo sapiens, UniProt P11362, V561M) (P11362 22-822 V561M limits assumed): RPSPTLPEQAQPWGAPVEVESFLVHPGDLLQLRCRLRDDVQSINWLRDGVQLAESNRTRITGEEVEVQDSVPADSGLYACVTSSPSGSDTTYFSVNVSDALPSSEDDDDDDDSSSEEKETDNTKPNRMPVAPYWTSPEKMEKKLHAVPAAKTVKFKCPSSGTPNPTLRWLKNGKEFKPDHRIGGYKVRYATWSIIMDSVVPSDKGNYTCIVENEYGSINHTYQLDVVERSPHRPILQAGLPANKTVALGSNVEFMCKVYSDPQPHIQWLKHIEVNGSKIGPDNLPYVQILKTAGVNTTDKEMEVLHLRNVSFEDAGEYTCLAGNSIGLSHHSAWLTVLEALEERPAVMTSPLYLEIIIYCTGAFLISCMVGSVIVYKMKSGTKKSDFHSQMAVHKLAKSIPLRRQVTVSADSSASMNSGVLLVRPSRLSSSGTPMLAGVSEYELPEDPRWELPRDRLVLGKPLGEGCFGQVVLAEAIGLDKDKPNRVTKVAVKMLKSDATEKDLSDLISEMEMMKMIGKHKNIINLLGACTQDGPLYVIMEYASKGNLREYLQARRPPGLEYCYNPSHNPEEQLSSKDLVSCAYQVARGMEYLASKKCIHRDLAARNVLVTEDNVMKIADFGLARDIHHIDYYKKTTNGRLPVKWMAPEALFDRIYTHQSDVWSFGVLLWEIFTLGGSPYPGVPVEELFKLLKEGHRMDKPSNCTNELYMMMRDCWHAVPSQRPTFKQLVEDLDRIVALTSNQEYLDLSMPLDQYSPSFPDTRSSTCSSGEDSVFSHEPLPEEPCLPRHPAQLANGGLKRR

[19] = biological target: each individual kinase of the panel (Homo sapiens, UniProt Q9NQU5)
[20] = biological target: each individual kinase of the panel (Homo sapiens, UniProt Q14289)
[21] = biological target: each individual kinase of the panel (Homo sapiens, UniProt Q00526)
[22] = biological target: each individual kinase of the panel (Homo sapiens, UniProt Q9H2G2)
[23] = biological target: each individual kinase of the panel (Homo sapiens, UniProt P52333)
[24] = biological target: each individual kinase of the panel (Mus musculus, UniProt P63085)
Chain of each individual kinase of the panel (Mus musculus, UniProt P63085) (P63085 2-358 limits assumed): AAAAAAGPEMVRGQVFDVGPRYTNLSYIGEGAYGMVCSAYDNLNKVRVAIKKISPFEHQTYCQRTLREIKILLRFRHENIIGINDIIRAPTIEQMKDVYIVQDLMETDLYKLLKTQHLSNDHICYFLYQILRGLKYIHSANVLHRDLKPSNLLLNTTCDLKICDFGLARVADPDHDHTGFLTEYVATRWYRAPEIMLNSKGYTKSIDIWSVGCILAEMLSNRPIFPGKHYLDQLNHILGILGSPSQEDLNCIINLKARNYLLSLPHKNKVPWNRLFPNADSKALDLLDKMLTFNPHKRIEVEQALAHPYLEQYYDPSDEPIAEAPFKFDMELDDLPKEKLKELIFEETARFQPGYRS

[25] = biological target: each individual kinase of the panel (Homo sapiens, UniProt O43353)
[26] = biological target: each individual kinase of the panel (Homo sapiens, UniProt Q9UBE8)
[27] = biological target: each individual kinase of the panel (Homo sapiens, UniProt Q9P0L2)
[28] = biological target: each individual kinase of the panel (Homo sapiens, UniProt P51956)
[29] = biological target: each individual kinase of the panel (Homo sapiens, UniProt Q8IWQ3)
[30] = biological target: each individual kinase of the panel (Homo sapiens, UniProt Q9UL54)
[31] = biological target: each individual kinase of the panel (Homo sapiens, UniProt O96017, I157T)

SMILES: C#Cc1cccc(Nc2nc3cc(C(=O)O)ccc3c3cncnc23)c1 [drawing 1135]
- GRK6 percentage of activity [1]: −2%
- EPHA2 percentage of activity [2]: 2%
- PRKCI percentage of activity [3]: −5%
- DAPK1 percentage of activity [4]: 58%
- MSK1 percentage of activity [5]: 19%
- BTK percentage of activity [6]: −5%
- EPHA3 percentage of activity [7]: −6%
- BRSK1 percentage of activity [8]: −1%
- PASK percentage of activity [9]: 87%
- p38-alpha (T106M) percentage of activity [10]: −8%
- EPHA4 percentage of activity [11]: −3%
- NEK7 percentage of activity [12]: −14%
- LIMK1 percentage of activity [13]: 3%
- MKK4(m) percentage of activity [14]: −2%
- MST2 percentage of activity [15]: −6%
- MAPKAPK3 percentage of activity [16]: −8%
- PRKCE percentage of activity [17]: 0%
- FGFR1 (V561M) percentage of activity [18]: 12%
- PAK6 percentage of activity [19]: −14%
- Pyk2 percentage of activity [20]: −3%
- CDK3/cyclinE percentage of activity [21]: −19%
- SLK percentage of activity [22]: −15%
- JAK3 percentage of activity [23]: 8%
- MAPK2(m) percentage of activity [24]: −6%
- RIPK2 percentage of activity [25]: 2%
- NLK percentage of activity [26]: 3%
- MARK1 percentage of activity [27]: 0%
- NEK3 percentage of activity [28]: −12%
- BRSK2 percentage of activity [29]: 7%
- TAO2 percentage of activity [30]: 3%
- CHK2(1157T) (h) percentage of activity [31]: 3%
